Assay results taken from US9051310B2, “Nicotinamide derivative or salt thereof” (FUJIFILM Corporation, priority 2011, dated 2015).

target: T1, glutathione S-transferase (GST)-linked full-length human Syk protein (Homo sapiens, UniProt P43405); test: Syk enzyme assay; format: biochemical; conditions: 0.83 nM Syk, time-resolved fluorescence; read-out: IC50 of Syk-inhibitory activity
T1 construct: glutathione S-transferase (GST)-linked full-length human Syk protein; purchased Carna Biosciences; host or cells: Baculovirus expression system
Procedure, shortened: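 Phosphotyrosine on a biotin-peptide substrate (0.5 μM) was read by time-resolved fluorescence at 615 and 665 nm with Eu-anti-pTyr antibody and APC-streptavidin after 1 h EDTA stop.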

Row | Compound | IC50
1 | CCn1ncc2ccc(Nc3nc(N[C@H](C(C)C)[C@H](C)N)c(F)cc3C(N)=O)cc21 [Example 2-103, 6-(((2S,3R)-2-amino-4-methylpentan-3-yl)amino)-2-((1-ethyl-1H-indazol-6-yl)amino)-5-fluoronicotinamide] | 50 to 100 nM
2 | Cc1ncc(Nc2nc(N[C@H](c3cc(F)cc(F)c3)[C@H](C)N)c(F)cc2C(N)=O)cc1-n1nccn1 [Example 2-548, 6-(((1R,2S)-2-amino-1-(3,5-difluorophenyl)propyl)amino)-5-fluoro-2-((6-methyl-5-(2H-1,2,3-triazol-2-yl)pyridin-3-yl)amino)nicotinamide] | 10 to 50 nM
3 | COc1cc(Nc2nc(N[C@H](CCSC)[C@H](C)N)c(F)cc2C(N)=O)cc(OC)c1 [Example 2-345, 6-(((3R,4S)-4-amino-1-(methylthio)pentan-3-yl)amino)-2-((3,5-dimethoxyphenyl)amino)-5-fluoronicotinamide] | 10 to 50 nM
4 | CC[C@H](N)[C@H](Nc1nc(Nc2ccnc(OCCOC)c2)c(C(N)=O)cc1F)C1CC1 [Example 2-360, 6-(((1R,2S)-2-amino-1-cyclopropylbutyl)amino)-5-fluoro-2-((2-(2-methoxyethoxy)pyridin-4-yl)amino)nicotinamide] | 10 to 50 nM
5 | COc1ccc([C@@H](Nc2nc(Nc3ccc4c(c3)c(N(C)C)nn4C)c(C(N)=O)cc2F)[C@H](C)N)cc1 [Example 2-342, 6-(((1R,2S)-2-amino-1-(4-methoxyphenyl)propyl)amino)-2-((3-(dimethylamino)-1-methyl-1H-indazol-5-yl)amino)-5-fluoronicotinamide] | 10 to 50 nM
6 | CCCC[C@@H](Nc1nc(Nc2cncc3c2cnn3CCOC)c(C(N)=O)cc1F)[C@H](C)N [Example 2-389, 6-(((2S,3R)-2-aminoheptan-3-yl)amino)-5-fluoro-2-((1-(2-methoxyethyl)-1H-pyrazolo[3,4-c]pyridin-4-yl)amino)nicotinamide] | 10 to 50 nM
7 | COCCn1ncc2c(Nc3nc(N[C@H](COC)[C@H](C)N)c(F)cc3C(N)=O)cccc21 [Example 2-309, 6-(((2S,3S)-3-amino-1-methoxybutan-2-yl)amino)-5-fluoro-2-((1-(2-methoxyethyl)-1H-indazol-4-yl)amino)nicotinamide] | 10 to 50 nM
8 | CCn1ncc2cc(Nc3nc(N[C@H](C4CCCCC4)[C@H](C)N)c(F)cc3C(N)=O)ccc21 [Example 2-264, 6-(((1R,2S)-2-amino-1-cyclohexylpropyl)amino)-2-((1-ethyl-1H-indazol-5-yl)amino)-5-fluoronicotinamide] | 10 to 50 nM
9 | COCCNc1nn(C)c2ccc(Nc3nc(N[C@@H]4CCCC[C@@H]4N)c(F)cc3C(N)=O)cc12 [Example 2-462, 6-(((1R,2S)-2-aminocyclohexyl)amino)-5-fluoro-2-((3-((2-methoxyethyl)amino)-1-methyl-1H-indazol-5-yl)amino)nicotinamide] | 10 to 50 nM
10 | CCCC[C@@H](Nc1nc(Nc2cnc3c(c2)c(C)nn3C)c(C(N)=O)cc1F)[C@H](C)N [Example 2-244, 6-(((2S,3R)-2-aminoheptan-3-yl)amino)-2-((1,3-dimethyl-1H-pyrazolo[3,4-b]pyridin-5-yl)amino)-5-fluoronicotinamide] | 10 to 50 nM
11 | CCn1ncc2cc(Nc3nc(N[C@H](C(C)C)[C@H](C)N)c(F)cc3C(N)=O)ccc21 [Example 2-105, 6-(((2S,3R)-2-amino-4-methylpentan-3-yl)amino)-2-((1-ethyl-1H-indazol-5-yl)amino)-5-fluoronicotinamide] | 10 to 50 nM

More lines, now with the values ahead:

Row | IC50 | Compound
12 | < 10 nM | CCCC[C@@H](Nc1nc(Nc2cccc3c2cnn3CCOC)c(C(N)=O)cc1F)[C@H](C)N [Example 2-307, 6-(((2S,3R)-2-aminoheptan-3-yl)amino)-5-fluoro-2-((1-(2-methoxyethyl)-1H-indazol-4-yl)amino)nicotinamide]
13 | < 10 nM | COCCn1nc(OC(F)F)c2cc(Nc3nc(N[C@H](C4CC4)[C@H](C)N)c(F)cc3C(N)=O)ccc21 [Example 2-176, 6-(((1R,2S)-2-amino-1-cyclopropylpropyl)amino)-2-((3-(difluoromethoxy)-1-(2-methoxyethyl)-1H-indazol-5-yl)amino)-5-fluoronicotinamide]
14 | 10 to 50 nM | COc1ncc(Nc2nc(N[C@H](CC(C)C)[C@H](C)N)c(F)cc2C(N)=O)cc1-n1nccn1 [Example 2-112, 6-(((2S,3R)-2-amino-5-methylhexan-3-yl)amino)-5-fluoro-2-((6-methoxy-5-(2H-1,2,3-triazol-2-yl)pyridin-3-yl)amino)nicotinamide]
15 | 10 to 50 nM | CC[C@@H](Nc1nc(Nc2cnc3c(c2)c(N(C)C)nn3C)c(C(N)=O)cc1F)[C@H](C)N [Example 2-288, 6-(((2S,3R)-2-aminopentan-3-yl)amino)-2-((3-(dimethylamino)-1-methyl-1H-pyrazolo[3,4-b]pyridin-5-yl)amino)-5-fluoronicotinamide]
16 | 10 to 50 nM | C[C@H](N)[C@H](Nc1nc(Nc2cnc(N3CCOCC3)c(F)c2)c(C(N)=O)cc1F)c1ccc(Cl)s1 [Example 2-511, 6-(((1S,2S)-2-amino-1-(5-chlorothiophen-2-yl)propyl)amino)-5-fluoro-2-((5-fluoro-6-morpholinopyridin-3-yl)amino)nicotinamide]
17 | 10 to 50 nM | Cc1ncc(Nc2nc(N[C@@H]3CC[C@@H](O)C[C@@H]3N)c(F)cc2C(N)=O)cc1-n1nccn1 (racemic) [Example 2-531, Mixture of 6-((2-amino-4-hydroxycyclohexyl)amino)-5-fluoro-2-((6-methyl-5-(2H-1,2,3-triazol-2-yl)pyridin-3-yl)amino)nicotinamide (1R,2S,4R), (1S,2R,4S)]
18 | 10 to 50 nM | Cc1ncc(Nc2nc(N[C@H](Cc3ccccc3)[C@H](C)N)c(F)cc2C(N)=O)cc1-n1nccn1 [Example 2-422, 6-(((2R,3S)-3-amino-1-phenylbutan-2-yl)amino)-5-fluoro-2-((6-methyl-5-(2H-1,2,3-triazol-2-yl)pyridin-3-yl)amino)nicotinamide]
19 | 10 to 50 nM | CN(C)c1nn(C)c2ncc(Nc3nc(N[C@@H]4CCOC[C@@H]4N)c(F)cc3C(N)=O)cc12 [Example 2-335, 6-(((3R,4R)-3-aminotetrahydro-2H-pyran-4-yl)amino)-2-((3-(dimethylamino)-1-methyl-1H-pyrazolo[3,4-b]pyridin-5-yl)amino)-5-fluoronicotinamide]
20 | 10 to 50 nM | CC[C@@H](Nc1nc(Nc2ccc3c(c2)c(NCCOC)nn3CCOC)c(C(N)=O)cc1F)[C@H](C)N [Example 2-536, 6-(((2S,3R)-2-aminopentan-3-yl)amino)-5-fluoro-2-((1-(2-methoxyethyl)-3-((2-methoxyethyl)amino)-1H-indazol-5-yl)amino)nicotinamide]
21 | 10 to 50 nM | CC[C@H](N)[C@@H](C)Nc1nc(Nc2ccc3c(c2)c(OC(F)F)nn3CCOC)c(C(N)=O)cc1F [Example 2-544, 6-(((2R,3S)-3-aminopentan-2-yl)amino)-2-((3-(difluoromethoxy)-1-(2-methoxyethyl)-1H-indazol-5-yl)amino)-5-fluoronicotinamide]
22 | 10 to 50 nM | CC[C@@H](Nc1nc(Nc2ccc3c(c2)c(N(C)C)nn3CCOC)c(C(N)=O)cc1F)[C@H](C)N [Example 2-502, 6-(((2S,3R)-2-aminopentan-3-yl)amino)-2-((3-(dimethylamino)-1-(2-methoxyethyl)-1H-indazol-5-yl)amino)-5-fluoronicotinamide]
23 | < 10 nM | CCCC[C@@H](Nc1nc(Nc2cccc3c2cnn3CC)c(C(N)=O)cc1F)[C@H](C)N [Example 2-99, 6-(((2S,3R)-2-aminoheptan-3-yl)amino)-2-((1-ethyl-1H-indazol-4-yl)amino)-5-fluoronicotinamide]
24 | < 10 nM | CC(C)C[C@@H](Nc1nc(Nc2cncc3c2cnn3CC(F)F)c(C(N)=O)cc1F)[C@H](C)N [Example 2-400, 6-(((2S,3R)-2-amino-5-methylhexan-3-yl)amino)-2-((1-(2,2-difluoroethyl)-1H-pyrazolo[3,4-c]pyridin-4-yl)amino)-5-fluoronicotinamide]
25 | < 10 nM | C[C@H](N)[C@H](Nc1nc(Nc2cnc3c(c2)c(N(C)C)nn3C)c(C(N)=O)cc1F)C1CCC1 [Example 2-293, 6-(((1R,2S)-2-amino-1-cyclobutylpropyl)amino)-2-((3-(dimethylamino)-1-methyl-1H-pyrazolo[3,4-b]pyridin-5-yl)amino)-5-fluoronicotinamide]
26 | < 10 nM | CCc1cccc(Nc2nc(N[C@@H]3CCCC[C@@H]3N)c(F)cc2C(N)=O)c1 [Example 2-450, 6-(((1R,2S)-2-aminocyclohexyl)amino)-2-((3-ethylphenyl)amino)-5-fluoronicotinamide]
27 | < 10 nM | COCCn1ncc2c(Nc3nc(N[C@@H](CN)CC(C)C)c(F)cc3C(N)=O)cncc21 [Example 2-386, (R)-6-((1-amino-4-methylpentan-2-yl)amino)-5-fluoro-2-((1-(2-methoxyethyl)-1H-pyrazolo[3,4-c]pyridin-4-yl)amino)nicotinamide]
28 | < 10 nM | COCCN(C)c1nn(C)c2ccc(Nc3nc(N[C@H](C4CC4)[C@H](C)N)c(F)cc3C(N)=O)cc12 [Example 2-460, 6-(((1R,2S)-2-amino-1-cyclopropylpropyl)amino)-5-fluoro-2-((3-((2-methoxyethyl)(methyl)amino)-1-methyl-1H-indazol-5-yl)amino)nicotinamide]
